Results: the supplement of paper PMC10307832

Compound: NC(=O)[C@@H](CCC(F)(F)F)N(Cc1ccc(-c2ncon2)cc1F)S(=O)(=O)c1ccc(Cl)cc1 [Avagacestat]
Assay: relative viability (nuclei count vs DMSO), 5 days (fraction); higher = more cells survive
Summary of the method: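 Viability is treated-well nuclei as a fraction of vehicle-well nuclei, reported as the median across plates. Before counting, lung cancer cell lines were kept overnight at 37 °C in 1536-well plates, pinned with five √10-spaced library-drug doses on vehicle-anchored plates, and left 5 days without medium change, then fixed, permeabilised and Hoechst-stained in one step, imaged at 4× and counted by MetaXpress. A plate passed only if control CV was below 25% and at least one doubling occurred.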

Row | Cell Line | relative viability (0.08 µM) | relative viability (0.253 µM) | relative viability (0.8 µM) | relative viability (2.53 µM) | relative viability (8 µM)
1 | NCI-H1975 | 1.02 | 1.21 | 1.15 | 0.943 | 0.967
2 | NCI-H322M | 0.916 | 0.833 | 0.97 | 0.74 | 0.846
3 | NCI-H1666 | 1.28 | 1.18 | 1.26 | 1.17 | 1.17
4 | EBC-1 | 1.07 | 1.11 | 1.12 | 0.942 | 0.8
5 | NCI-H1355 | 1.07 | 1.2 | 1.03 | 0.876 | 0.874
6 | PC-3 [JPC-3] | 1.2 | 1.08 | 1.25 | 1.05 | 1.02
7 | NCI-H650 | 1.02 | 0.966 | 1.05 | 1.16 | 0.872
8 | UMC-11 | 1.04 | 1.07 | 1.1 | 1.02 | 1.06
9 | NCI-H520 | 1.04 | 1.08 | 1 | 0.918 | 0.825
10 | NCI-H727 | 1.06 | 0.987 | 0.948 | 1.02 | 0.837
11 | SK-MES-1 | 1.14 | 1.08 | 1.06 | 0.92 | 0.889
12 | NCI-H1915 | 1.04 | 1.21 | 1.06 | 1.03 | 0.978
13 | NCI-H1437 | 1.09 | 0.997 | 1.1 | 0.915 | 0.877
14 | HCC-366 | 1.04 | 1.17 | 1.07 | 1.11 | 1.11
15 | A549 | 1.1 | 1.37 | 1.15 | 1.03 | 0.993
16 | NCI-H2405 | 1.01 | 0.99 | 1.08 | 0.956 | 0.97
17 | LOU-NH91 | 1.05 | 0.881 | 1.14 | 0.917 | 0.968
18 | EMC-BAC-2 | 1.22 | 1.08 | 1.15 | 1.08 | 1.1
19 | NCI-H1993 | 1.16 | 1.09 | 1.34 | 0.93 | 1.01

Row | Cell Line | relative viability (0.08 µM) | relative viability (0.253 µM) | relative viability (0.8 µM) | relative viability (2.53 µM) | relative viability (8 µM)
20 | BEN | 1.13 | 1.02 | 1.06 | 0.959 | 0.917
21 | NCI-H1734 | 1.04 | 1.19 | 1 | 1.04 | 0.994
22 | NCI-H2347 | 1.1 | 1.07 | 1.13 | 1.03 | 0.97
23 | NCI-H647 | 0.992 | 1.07 | 1.13 | 0.922 | 0.899
24 | CAL-12T | 1.09 | 1.12 | 1.11 | 1.11 | 1.04
25 | EPLC-272H | 0.989 | 0.922 | 1.07 | 1 | 0.911
26 | LCLC-97TM1 | 1.08 | 1.09 | 1.2 | 1 | 0.829
27 | NCI-H3122 | 1.07 | 1.08 | 1.05 | 0.995 | 0.927
28 | HCC-15 | 1.17 | 1.19 | 1.13 | 1 | 0.946
29 | SK-LU-1 | 1.21 | 1.03 | 1.02 | 0.83 | 0.908
30 | NCI-H1944 | 1.06 | 1.15 | 0.924 | 0.865 | 0.922
31 | HARA | 0.891 | 1.17 | 1.06 | 0.963 | 0.989
32 | NCI-H1650 | 1.1 | 1.08 | 0.95 | 1.13 | 0.881
33 | NCI-H2228 | 1.07 | 1.22 | 1.29 | 0.9 | 1.01
34 | NCI-H1299 | 1.03 | 1.11 | 1.06 | 1.04 | 1
35 | NCI-H596 | 1.06 | 0.986 | 0.985 | 1.04 | 0.936
36 | NCI-H1395 | 0.909 | 0.903 | 0.97 | 0.875 | 0.861
37 | NCI-H2170 | 1.08 | 1.18 | 0.994 | 0.938 | 0.932
38 | NCI-H2023 | 1.18 | 1.22 | 1.1 | 0.912 | 0.804
